Tests used:
[1] = 101 kPa, Liquid
[2] = xn = mol fraction of the nth substance listed; settings: 101 kPa, Liquid

CCCCCCO [hexan-1-ol]
[1]
Settings | mass density [kg/m3] | speed of sound [m/s] | viscosity [mPa·s]
298.15 K | 815.23 | 1304.7 | 4.594
303.15 K | 812.118 | 1287.9 | 3.887
308.15 K | 808.482 | 1271.1 | 3.359
313.15 K | 804.811 | 1254.5 | 2.914

Clc1ccccc1 [chlorobenzene] + CCCCCCCCCCO
[2]
Settings | mass density [kg/m3] | speed of sound [m/s] | viscosity [mPa·s]
298.15 K, x1 = 0.1664 | 852.913 | 1362.6 | 7.762
298.15 K, x1 = 0.322 | 881.587 | 1344.4 | 5.123
298.15 K, x1 = 0.4609 | 911.692 | 1327 | 3.484
298.15 K, x1 = 0.5731 | 939.879 | 1311.7 | 2.539
298.15 K, x1 = 0.6619 | 965.236 | 1299.5 | 1.967
298.15 K, x1 = 0.7456 | 992.108 | 1288.5 | 1.517
298.15 K, x1 = 0.8174 | 1017.95 | 1280.1 | 1.243
298.15 K, x1 = 0.8857 | 1045.67 | 1273.3 | 1.017
298.15 K, x1 = 0.9426 | 1071.48 | 1269.5 | 0.865
298.15 K, x1 = 1 | 1100.67 | 1268 | 0.757
303.15 K, x1 = 0.1664 | 848.821 | 1343.9 | 6.542
303.15 K, x1 = 0.322 | 877.329 | 1325 | 4.407
303.15 K, x1 = 0.4609 | 907.247 | 1307.2 | 3.058
303.15 K, x1 = 0.5731 | 935.236 | 1292.4 | 2.262
303.15 K, x1 = 0.6619 | 960.447 | 1280.9 | 1.771
303.15 K, x1 = 0.7456 | 987.138 | 1270.5 | 1.388
303.15 K, x1 = 0.8174 | 1012.83 | 1262.6 | 1.147
303.15 K, x1 = 0.8857 | 1040.32 | 1256.1 | 0.949
303.15 K, x1 = 0.9426 | 1065.89 | 1252.2 | 0.808
303.15 K, x1 = 1 | 1095.1 | 1249.4 | 0.714
308.15 K, x1 = 0.1664 | 845.166 | 1326 | 5.554
308.15 K, x1 = 0.322 | 873.388 | 1306.4 | 3.814
308.15 K, x1 = 0.4609 | 903.044 | 1288.1 | 2.695
308.15 K, x1 = 0.5731 | 930.8 | 1272.9 | 2.021
308.15 K, x1 = 0.6619 | 955.749 | 1260.8 | 1.597
308.15 K, x1 = 0.7456 | 982.146 | 1249.5 | 1.273
308.15 K, x1 = 0.8174 | 1007.56 | 1240.8 | 1.045
308.15 K, x1 = 0.8857 | 1034.75 | 1234.6 | 0.868
308.15 K, x1 = 0.9426 | 1060.08 | 1231 | 0.756
308.15 K, x1 = 1 | 1089.08 | 1230.9 | 0.677
313.15 K, x1 = 0.1664 | 841.509 | 1308.6 | 4.751
313.15 K, x1 = 0.322 | 869.536 | 1288.1 | 3.323
313.15 K, x1 = 0.4609 | 898.972 | 1269.1 | 2.388
313.15 K, x1 = 0.5731 | 926.509 | 1253.3 | 1.816
313.15 K, x1 = 0.6619 | 951.271 | 1241.1 | 1.454
313.15 K, x1 = 0.7456 | 977.488 | 1230.1 | 1.156
313.15 K, x1 = 0.8174 | 1002.68 | 1222.1 | 0.968
313.15 K, x1 = 0.8857 | 1029.64 | 1216.5 | 0.809
313.15 K, x1 = 0.9426 | 1054.84 | 1213.4 | 0.702
313.15 K, x1 = 1 | 1083.66 | 1212.6 | 0.617

CCCCCCCO [heptan-1-ol]
[1]
Settings | mass density [kg/m3] | speed of sound [m/s] | viscosity [mPa·s]
298.15 K | 818.732 | 1327.3 | 5.944
303.15 K | 815.287 | 1313.6 | 5.069
308.15 K | 811.737 | 1293.9 | 4.333
313.15 K | 808.162 | 1277.2 | 3.726

Clc1ccccc1 [chlorobenzene] + CCCCCCCCCO
[2], x1 = 1
Settings | mass density [kg/m3] | speed of sound [m/s] | viscosity [mPa·s]
298.15 K | 1100.67 | 1268 | 0.757
303.15 K | 1095.1 | 1249.4 | 0.714
308.15 K | 1089.08 | 1230.9 | 0.677
313.15 K | 1083.66 | 1212.6 | 0.617

CCCCCCCCCO [nonan-1-ol]
[1]
Settings | mass density [kg/m3] | speed of sound [m/s] | viscosity [mPa·s]
298.15 K | 824.478 | 1365.5 | 9.715
303.15 K | 821.044 | 1353.6 | 7.927
308.15 K | 817.582 | 1331.8 | 6.664
313.15 K | 814.098 | 1315 | 5.645

From the NIST ThermoML archive (doi:10.1021/je060353z)
